IC50 data for 5 compounds are collected here from patent publication US20080146616A1, “Indoles Useful in the Treatment of Inflammation” (priority 2004, published 2008).

pIC50: −log10 of the molar value.

For this experiment, the target named is T1, human mPGES-1 (Homo sapiens, UniProt O14684).
T1 construct: made in house; host or cells: E. coli (membrane fraction)
T1 sequence (O14684 1-152): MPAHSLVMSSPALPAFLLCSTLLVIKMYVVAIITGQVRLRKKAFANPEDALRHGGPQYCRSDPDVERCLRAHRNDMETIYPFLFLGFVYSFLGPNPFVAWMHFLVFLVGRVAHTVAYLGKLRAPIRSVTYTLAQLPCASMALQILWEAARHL
Kind of experiment: mPGES-1 inhibition assay (conversion of PGH2 to PGE2, HPLC analysis). The class given is biochemical. The settings on record: human mPGES-1 expressed in E. coli, membrane fraction; 25 min preincubation, PGH2 substrate 60 s, room temperature; read-out: concentration at which 50% inhibition of mPGES-1 was observed. How it is done:
In the assay human in PGES-1 catalyses the reaction where the substrate PGH2 is converted to PGE2. mPGES-1 is expressed in E. Coli and the membrane fraction is dissolved in 20mM NaPi-buffer pH 8.0 and stored at −80° C. In the assay human mPGES-1 is dissolved in 0.1 M KPi-buffer pH 7.35 with 2.5 mM glutathione. The stop solution consists of H2O/MeCN (7/3), containing FeCl2 (25 mM) and HCl (0.15 M). The assay is performed at room temperature in 96-well plates. Analysis of the amount of PGE2 is performed with reversed phase HPLC (Waters 2795 equipped with a 3.9×150 mm C18 column). The mobile phase consists of H2O/MeCN (7/3), containing TFA (0.056%), and absorbance is measured at […] with a Waters 2487 UV-detector.
The following is added chronologically to each well: • 1. 100 μL human mPGES-1 in KPi-buffer with glutathione. Total protein concentration: 0.02 mg/mL. • 2. […] inhibitor in DMSO. Incubation of the plate at room temperature for 25 minutes. • 3. 4 μL of a […] PGH2 solution. Incubation of the plate at room temperature for 60 seconds. • 4. 100 μL stop solution. • 180 μL per sample is analyzed with HPLC.
For `CC(C)Oc1ccc(-c2c(C(=O)O)n(-c3cccc(OC(C)C)c3)c3ccc(-c4ccc(C(C)(C)C)cc4)cc23)cc1` [Example 2, 5-(4-tert-Butylphenyl)-1-(3-isopropoxyphenyl)-3-(4-isopropoxyphenyl)-indole-2-carboxylic acid], the pIC50 is 6.46.

Take `CC(C)Oc1ccc(-c2c(C(=O)O)n(-c3ccc(N(C)C)cc3)c3ccc(-c4ccc(C(C)(C)C)cc4)cc23)cc1` [Example 5, 5-(4-tert-Butylphenyl)-1-(4-(dimethylamino)phenyl)-3-(4-isopropoxyphenyl)indole-2-carboxylic acid]: the pIC50 is 6.68. Take `CC(C)Nc1ccc(-n2c(C(=O)O)c(-c3ccc(OC(C)C)cc3)c3cc(-c4ccc(C(C)(C)C)cc4)ccc32)cc1` [Example 6, 5-(4-tert-Butylphenyl)-3-(4-isopropoxyphenyl)-1-(4-(isopropylamino)-phenyl)indole-2-carboxylic acid]: the pIC50 is 7.15. For the compound `CC(C)Oc1ccc(-n2c(C(=O)O)c(-c3cccnc3)c3cc(-c4ccc(C(F)(F)F)cc4)ccc32)cn1` [Example 11, 1-(6-Isopropoxypyrid-3-yl)-3-(pyrid-3-yl)-5-(4-(trifluoromethyl)phenyl)-indole-2-carboxylic acid], the pIC50 is 5.74. Take `CC(C)Oc1ccc(-c2c(C(=O)O)n(-c3cccnc3)c3ccc(-c4ccc(C(C)(C)C)cc4)cc23)cc1` [Example 13, 5-(4-tert-Butylphenyl)-3-(4-isopropoxyphenyl)-1-pyrid-3-yl-1H-indole-2-carboxylic acid]: the pIC50 is 6.02.
